Results taken from patent US20250302751A1, “FORMULATIONS FOR ADM[…], norLAAM AND dinorLAAM AND METHODS OF THEIR USE TO TREAT OPIOID USE DISORDER” (VIRGINIA COMMONWEALTH UNIVERSITY, priority 2022, published 2025).
Read-outs that look alike come from different tables or passages of the source.

Experiments:
[1] = humans; cited from earlier work
[2] = weak base; cited from earlier work
[3] = rats; cited from earlier work
[4] = Plasma pharmacokinetics of LAAM in rabbits (intravenous, oral, buccal); details: rabbit
Method: Twenty-four New Zealand white rabbits of mixed gender (weighing 3.6-4.0 kg) were obtained from ENVIGO and used in this study. […] All animal protocols were approved by the Institutional Animal Care and Use Committee at the Virginia Commonwealth University. […] Rabbits were anesthetized following an intramuscular injection of ketamine (50 mg/kg) and xylazine (5-7 mg/kg), followed by applying buccal films (1 mg/kg) into the buccal pouch. […] An oral solution (1 mg/kg) was administered by an oral syringe (1 mL), followed by an injection of ketamine/xylazine. After anesthesia, a catheter was inserted via the marginal ear vein for blood collection before dosing and at pre-determined time points (30 min before and at 5, 15, 30 min, and 1, 2, 3, 4, 8, 12, 24, 48, 72, 96, and 120 h) following administration. Eppendorf tubes contained EDTA (0.5 M) to prevent blood coagulation. Blood samples were placed on ice immediately following the collection for no longer than 5 min, plasma was separated by centrifugation (3000 g, at 0° C. for 3 min) and stored at −80° C. until analysis. At the endpoint (120 h), all animals were sacrificed. Urine, interest tissues (buccal mucosa, kidney, spleen, liver, gallbladder, muscle, brain, and spinal cord, mesenteric fat, perirenal fat, neck fat, inguinal fat) were harvested and stored at −80° C. until analysis. The buccal mucosa tissues and control in contact with fiber film formulations were collected for histopathological analysis using H&E staining. […] Non-compartmental analysis (NCA) was applied to calculate pharmacokinetic parameters derived from plasma concentration-time profiles. The absolute bioavailability was subsequently calculated by comparing respective AUCs, as shown by the following equation: […]

[5] = high permeability according to the FDA; cited from earlier work
[6] = both, New Zealand white, plasma, iv, 0.8 mg/kg
[7] = both, New Zealand white, plasma, po, 1 mg/kg

| Structure (SMILES) | Oral bioavailability (Foral %) [1] | pKa [2] | Oral bioavailability (Foral %) [3] [%] | AUC(0-inf) [4, 6] [ng·h/mL] | AUC(0-t) [4, 6] [ng·h/mL] | C0 [4, 6] [ng/mL] | Vd [4, 6] [L/kg] | clearance [4, 6] [mL/min/kg] | AUC(0-inf) [4, 7] [ng·h/mL] | AUC(0-t) [4, 7] [ng·h/mL] | Cmax [4, 7] [ng/mL] | Tmax [4, 7] [min] | LAAM F (%), bioavailability, calculated by AUCinf ([4]; LAAM oral solution 1 mg/kg) [%] | Permeability of model drug [5] [×10⁻⁶ cm/s] |
| --- | --- | --- | --- | --- | --- | --- | --- | --- | --- | --- | --- | --- | --- | --- |
| CC[C@H](OC(C)=O)C(C[C@H](C)N(C)C)(c1ccccc1)c1ccccc1 [LAAM, [(3S,6S)-6-(dimethylamino)-4,4-diphenylheptan-3-yl]acetate] | approximately 50% | 9.87 | ~60 | 284 ± 94.7 | 274 ± 91.6 | 288 ± 133 | 30.6 ± 6.3 | 51.7 | 69.5 ± 10 | 65.7 ± 10.1 | 20.7 ± 3.4 | 24 ± 12 | 19.6 ± 2.8 |  |
| COCCc1ccc(OCC(O)CNC(C)C)cc1 (centres unmarked) [metoprolol] |  |  |  |  |  |  |  |  |  |  |  |  |  | 11 |
